Where two headings read alike, the source gives them in different places.
Tests used:
[1] = test system: Sup-B15 BCR-ABL positive human acute lymphoblastic leukemia (ALL) cell line; experiment: Cell viability assay, Sup-B15 leukemia cells (flow cytometry, vital dye exclusion); type: cell-based; conditions: for IC50: 72 h, vital dye exclusion and flow cytometry, read-out: Mean IC50 (+/- SEM) in cell viability assay, SupB15 Ph+ ALL; for ability to kill leukemia cells, potency compared in words: Sup-B15 cell viability assays
From the text: (§1) Leukemia cell assays: Effects of chemical changes on ability to kill cells as observed in cell viability assays using the BCR-ABL positive human acute lymphoblastic leukemia (ALL) cell line, Sup-B15 are described. Assays using the Sup-B15 cell line were designed to determine efficacy of azacyclic constrained small molecule analogs of FTY720 in killing leukemia cells. Analogs were generated using the synthesis methods mentioned above. Sup-B15 cells were maintained at 2-3 million/mL in RPMI 1640 (by Mediatech™) supplemented with 10% fetal calf serum (by Sigma-Aldrich™), 10 mM Hepes (by Mediatech™), 55 μM β-mercaptoethanol (by Sigma-Aldrich™), 2 mM L-glutamine (by Mediatech™), and antibiotics. BV173, Nalm-6, and Blin-1 were maintained at 1-2 million/mL and CCRF-CEM at less than 500,000/mL in the same medium. BMp190 cells were created by transducing murine bone marrow cells with pMIC-p190 which expresses the p190 isoform of BCR-Abl and human CD4 from an IRES; these cells were kept at 1-2 million/mL in RPMI supplemented as above.
(§2) Flow cytometry: Much of the biological activity presented is shown through flow cytometry data. […] Here, IC50 flow cytometry assays were used. In them, viability was determined at 72 hours by vital dye exclusion [propium iodide or DAPI (4′,6-diamindino-2-phenylindole)]. To measure nutrient receptor expression following exposure to FTY720 and azacyclic constrained analogs of FTY720, surface 4F2hc expression was measured after 3 hours of drug treatment by staining 150,000 cells with phycoerythrin-conjugated mouse anti-human CD98 (by BD Biosciences™). Analysis was restricted to viable cells.
(§3) All samples for the disclosed sets of data were analyzed on a BD LSR II flow cytometer and data analyzed with FlowJo™ software (by Treestar™). IC50's were calculated and statistical tests were performed using GraphPad Prism™.

[2] = test system: BMp190 cells (murine bone marrow transduced with BCR-Abl p190); experiment: Cell viability assay, BCR-Abl p190-expressing murine bone marrow (BM-p190); type: cell-based; conditions: 72 h, vital dye exclusion and flow cytometry, read-out: Mean IC50 (+/- SEM) in cell viability assay, BM-p190
From the text: as §1, §2, §3

[3] = test system: BV173 Ph+ ALL cell line; experiment: Cell viability assay, BV173; type: cell-based, human; conditions: 72 h, vital dye exclusion and flow cytometry, read-out: Mean IC50 (+/- SEM) in cell viability assay, BV173 Ph+ ALL
From the text: as §1, §2, §3

[4] = test system: CCRF-CEM Ph- ALL cell line; experiment: Cell viability assay, CCRF-CEM; type: cell-based, human; conditions: 72 h, vital dye exclusion and flow cytometry, read-out: Mean IC50 (+/- SEM) in cell viability assay, CCRF-CEM Ph- ALL
From the text: as §1, §2, §3

[5] = test system: Nalm-6 Ph- ALL cell line; experiment: Cell viability assay, Nalm-6; type: cell-based, human; conditions: 72 h, vital dye exclusion and flow cytometry, read-out: Mean IC50 (+/- SEM) in cell viability assay, Nalm-6 Ph- ALL
From the text: as §1, §2, §3

[6] = test system: Blin-1 Ph- ALL cell line; experiment: Cell viability assay, Blin-1; type: cell-based, human; conditions: 72 h, vital dye exclusion and flow cytometry, read-out: Mean IC50 (+/- SEM) in cell viability assay, Blin-1 Ph- ALL
From the text: as §1, §2, §3

[7] = test system: PC3 prostate cancer cell line; experiment: Cell viability assay, PC3; type: cell-based, human; conditions: 72 h, vital dye exclusion and flow cytometry, read-out: Mean IC50 (+/- SEM) in cell viability assay, PC3 prostate
Procedure: as §2, with “In them, viability was determined at 72 hours by vital dye exclusion [propium iodide or DAPI (4′,6-diamindino-2-phenylindole)].” left out, “cells. All samples for the disclosed sets of data were analyzed on a BD LSR II flow cytometer and data analyzed with FlowJo™ software (by Treestar™). IC50's were calculated and statistical tests were performed using GraphPad Prism™.” for “cells.”

[8] = test system: DU145 prostate cancer cell line; experiment: Cell viability assay, DU145; type: cell-based, human; conditions: 72 h, vital dye exclusion and flow cytometry, read-out: Mean IC50 (+/- SEM) in cell viability assay, DU145 prostate
Procedure: as §2, with “In them, viability was determined at 72 hours by vital dye exclusion [propium iodide or DAPI (4′,6-diamindino-2-phenylindole)].” left out, “cells. All samples for the disclosed sets of data were analyzed on a BD LSR II flow cytometer and data analyzed with FlowJo™ software (by Treestar™). IC50's were calculated and statistical tests were performed using GraphPad Prism™.” for “cells.”

[9] = molecular target: T1, sphingosine kinase 2 (Mus musculus, UniProt Q9JIA7); experiment: Phosphorylation by sphingosine kinase 2 in cells; type: cell-based
T1 construct: endogenous in cells
T1 sequence (Q9JIA7 1-617): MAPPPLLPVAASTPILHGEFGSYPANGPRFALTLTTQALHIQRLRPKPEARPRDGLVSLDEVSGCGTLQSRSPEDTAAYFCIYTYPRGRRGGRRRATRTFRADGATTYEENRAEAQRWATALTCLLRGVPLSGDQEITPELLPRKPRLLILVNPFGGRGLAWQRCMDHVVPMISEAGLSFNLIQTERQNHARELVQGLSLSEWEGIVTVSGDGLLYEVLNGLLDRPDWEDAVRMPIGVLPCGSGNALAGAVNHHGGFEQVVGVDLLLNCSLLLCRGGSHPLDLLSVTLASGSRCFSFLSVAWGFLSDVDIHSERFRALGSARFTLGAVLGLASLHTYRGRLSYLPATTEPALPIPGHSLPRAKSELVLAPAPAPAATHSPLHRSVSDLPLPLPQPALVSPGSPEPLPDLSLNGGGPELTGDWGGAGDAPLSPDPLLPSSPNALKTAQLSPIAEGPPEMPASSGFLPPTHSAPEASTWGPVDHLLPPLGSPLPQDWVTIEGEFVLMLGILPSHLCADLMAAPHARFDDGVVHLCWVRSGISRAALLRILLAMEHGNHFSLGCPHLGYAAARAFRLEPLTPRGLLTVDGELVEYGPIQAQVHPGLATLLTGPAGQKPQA
Procedure: The importance of phosphorylation in the activity of compound 6 was then examined. In this study MEF knockout lines that show the same differential sensitivity to compound 6 relative to its enantiomers as leukemia cells were used (FIG. 10h). […] A phosphate and a non-phosphorylatable analog of compound 6 were then tested.

[10] = Mouse heart rate by telemetry; type: in vivo; conditions: telemetry for 24 h after administration of anti-cancer dose
From the text: (§4) As previously discussed, FTY720 itself cannot be used in cancer patients because phosphorylation of FTY720 by SphKs makes FTY720-P, which acts at S1P receptors to cause bradycardia and immunosuppression (on-target effect for primary use).

[11] = test system: circulating lymphocytes; experiment: Lymphocyte sequestration (circulating lymphocytes); type: in vivo, mouse; conditions: number of circulating lymphocytes 12 h after dosage
From the text: as §4

SMILES: CCCCCCCCc1ccc(CO[C@H]2CN[C@H](CO)C2)cc1.Cl [Compound 5]
- IC50 [1]: 7.7 ± 0.8 µM
- IC50 [2]: 5.7 ± 1.1 µM
- IC50 [3]: 10.4 ± 0.7 µM
- IC50 [4]: 11 ± 1.3 µM
- IC50 [5]: 15 ± 2.1 µM
- IC50 [6]: 7.5 ± 0.1 µM
- IC50 [7]: 14.3 ± 1.2 µM
- IC50 [8]: 10.8 ± 0.4 µM
- phosphorylation by sphingosine kinase 2 in cells [9]: phosphorylated by sphingosine kinase 2 in cells

SMILES: CCCCCCCCc1ccc(CO[C@H]2CN[C@H](C)C2)cc1.Cl [Compound 13]
- ability to kill leukemia cells, potency compared in words [1]: no detectable effect on the potency

SMILES: CCCCCCCCc1ccc(CO[C@@H]2CN[C@@H](C)C2)cc1.Cl [Compound 14]
- ability to kill leukemia cells, potency compared in words [1]: decreased the activity

SMILES: CCCCCCCCc1ccc(CO[C@@H]2CN[C@@H](COC)C2)cc1.Cl [Compound 15, (2R,4S)-2-(methoxymethyl)-4-((4-octylbenzyl)oxy)-pyrrolidine hydrochloride salt]
- ability to kill leukemia cells, potency compared in words ([1]; hydrochloride salt): reduced the potency

SMILES: CCCCCCCCc1ccc(COC2CCNC2)cc1.Cl (centres unmarked) [Compound 16]
- ability to kill leukemia cells, potency compared in words [1]: only a marginal effect on activity

SMILES: CCCCCCCCc1ccc(CCC(N)(CO)CO)cc1.Cl [FTY720, 2-Amino-2-[2-(4-octylphenyl)ethyl]propane 1,3-diol hydrochloride]
- IC50 ([1]; Homo sapiens, SUP-B15): 6.8 ± 0.7 µM
- IC50 ([2]; Mus musculus): 3.3 ± 0.2 µM
- IC50 ([3]; Homo sapiens, BV-173): 6.3 ± 0.4 µM
- IC50 ([4]; Homo sapiens, CCRF-CEM): 6.8 ± 0.3 µM
- IC50 ([5]; Homo sapiens, NALM-6): 9.6 ± 1.9 µM
- IC50 ([6]; Homo sapiens): 5.5 ± 0.1 µM
- IC50 ([7]; Homo sapiens): 9.8 ± 0.9 µM
- IC50 ([8]; Homo sapiens, DU-145): 6.5 ± 0.9 µM
- effect on heart rate [10]: dramatic drop in heart rate
- lymphocyte sequestration / immunosuppression [11]: causes lymphocyte sequestration
